Laboratory results published in patent US9895370B2, “Pharmaceutical composition for preventing or treating of cirrhosis of liver comprising G protein coupled receptor 119 ligand as an active ingredient” (DONGGUK UNIVERSITY INDUSTRY—ACADEMIC COOPERATION FOUNDATION, priority 2015, dated 2018).

Key:
mouse HSCs = test: col1A1 mRNA expression in primary cultured mouse HSCs during in vitro culture-induced activation; format: cell-based; details: treated on day 1, 3 and 5, FIG. 2a
Procedure: HSCs were isolated from a male C57BL/6 mouse, a male GPR119 WT mouse and a GPR119 KO mouse. More specifically, each mouse was anesthetized to perform an abdominal incision, a cannula was inserted into the hepatic portal vein to introduce a gas mixture of 5% CO2 and 95% 02, and then Ca^2+, Mg^2+-free Hank's balanced salt solution was injected into the cannula at 37° C. to remove blood in the liver. Afterward, a 0.1% collagenase type IV (Sigma, U.S.A.) solution was injected. The liver tissue was detached from the body and prepared in a liver cell suspension, and following centrifugation at 1000×g for 10 minutes, a precipitated cell layer was obtained by floating HSCs to isolate through a density gradient method using Nycodenz. The isolated HSCs were cultured in high glucose Dulbecco's Modified Eagle's Medium (DMEM) containing 10% fetal bovine serum, 50 U/ml penicillin and […] streptomycin at 37° C. in 5% CO2.
Total RNA ([…]) extracted from cells using Trizol and a Maxime RT PreMix Kit (iNtRON Biotechnology, Gyeonggi-do, Korea) was used to obtain cDNA. […]
Meanwhile, for real-time RT-qPCR, the synthesized cDNA was assessed in a CFX Connect™ Real-Time PCR Detection System (Bio-Rad Laboratories, CA, USA) instrument using a SYBR green dye (Bio-Rad). […]

[1] = test system: mouse embryonic fibroblasts (MEFs); test: collagen I and α-SMA protein expression in mouse embryonic fibroblasts (western blot); format: cell-based; details: FIG. 2b
Procedure: (§1) Sodium dodecylsulfate-polyacrylamide gel electrophoresis (SDS-PAGE) was performed using a gel electrophoresis device (Mighty Small SE 250, Hoefer Scientific Instruments, San Francisco) according to the method established by the inventors. A lysed cell fraction was diluted with a sample dilution buffer [63 mM Tris (pH. 6.8), 10% glycerol, 2% SDS, 0.0013% bromophenol blue, 5% β-mercaptoethanol], and subjected to electrophoresis in an electrode buffer (15 g Tris, 72 g glycerin and 5 g SDS contained in an 1 L solution) using a 8-12% gel. After electrophoresis, the gel was transferred to a nitrocellulose membrane to transfer proteins using an electrophoresis device for transfer in a transfer buffer (25 mM Tris, 192 mM glycerin, 20% v/v methanol (pH. 8.3)] at 40 mA for 3 hours. The nitrocellulose membrane was reacted with first antibodies, reacted with horseradish peroxidase-conjugated goat anti-rabbit IgG and horseradish peroxidase-conjugated goat anti-mouse IgG as secondary antibodies for 1 hour, and visualized using an ECL chemiluminescence system (Amersham, Gaithesberg, Mass.).

[2] = test system: peptidyl prolyl isomerase (Pin1); test: Pin1 expression in LX-2; format: cell-based, human; details: FIG. 5b
Procedure: (§2) A human HSC line (LX-2, Milipore, U.S.A.) was plated in a 6-well plate, and grown to confluency in DMEM supplemented with 1% penicillin-streptomycin (Hyclone, U.S.A.) and 2% fetal bovine serum (Hyclone, U.S.A.) at 37° C. in a 5% CO2 incubator. For a further experiment, the confluent HSC line was incubated in an FBS-free medium, instead of the 2% FBS-added medium.
According to existing reports, as a core factor participating in cell proliferation by PDGF, peptidyl prolyl isomerase (Pin1) is known. Therefore, Pin1 relevance with respect to the GPR119 ligand action was evaluated.

p300 = p300 protein and mRNA expression in LX-2; format: cell-based, human
Procedure: as §2, §1
Thereafter, in the present invention, the influence of the GPR119 ligand on p300 expression was observed. […] From the result, it was assumed that a decrease in the expression of the p300 protein due to the GPR119 ligand could be caused by proteasomal degradation, and therefore the expression of the p300 protein was observed using a proteasome inhibitor, which is MG132.

HSC line LX-2 = test: PDGF-induced HSC proliferation in LX-2; format: cell-based, human; details: FIG. 5a
Procedure: as §2

[3] = test system: AMP-activated protein kinase (AMPK); test: AMPK activation (AMPK and ACC phosphorylation) in LX-2; format: cell-based, human; details: LX-2, time-dependent treatment; FIG. 4b
Procedure: as §2
Sodium dodecylsulfate-polyacrylamide gel electrophoresis (SDS-PAGE) was performed using a gel electrophoresis device (Mighty Small SE 250, Hoefer Scientific Instruments, San Francisco) according to the method established by the inventors. A lysed cell fraction was diluted with a sample dilution buffer [63 mM Tris (pH. 6.8), 10% glycerol, 2% SDS, 0.0013% bromophenol blue, 5% β-mercaptoethanol], and subjected to electrophoresis in an electrode buffer (15 g Tris, 72 g glycerin and 5 g SDS contained in an 1 L solution) using a 8-12% gel. […]

human HSC line LX-2 = test: TGFβ1-inducible collagen I and TGFβ expression in LX-2; format: cell-based
Procedure: as §2
Total RNA ([…]) extracted from cells using Trizol and a Maxime RT PreMix Kit (iNtRON Biotechnology, Gyeonggi-do, Korea) was used to obtain cDNA. For RT-PCR, a target gene was amplified by PCR using a Maxime™ PCR PreMix Kit according to the manufacturer's instructions, and subjected to electrophoresis in a 2% agrose gel, thereby identifying the amplified PCR product.
Meanwhile, for real-time RT-qPCR, the synthesized cDNA was assessed in a CFX Connect™ Real-Time PCR Detection System (Bio-Rad Laboratories, CA, USA) instrument using a SYBR green dye (Bio-Rad). The CP value of the gene was calibrated with the CP value of S 18r gene. Also, through a melting curve analysis, specificity of the amplified PCR product was confirmed.
as §1
A critical cytokine having an influence on the induction of liver fibrosis, TGFβ1, is a potent fibrosis stimulation factor for HSCs. To examine the expression of a liver fibrosis-inducing factor which was increased when the human liver cell line LX-2, cultured by method D was treated with TGFβ1, changes in expression according to the treatment with GPR119 ligands (MBX-2982, GSK1292263) were assessed by the methods described in G and H, thereby observing the effect of the GPR119 ligands.

Smad2/Smad3 = test: TGFβ1-elevated Smad2/Smad3 phosphorylation and nuclear translocation in LX-2; format: cell-based, human
Procedure: as §2
A whole cell lysate and a nuclear fraction were separated according to a conventional method. More specifically, the whole cell lysate was obtained by lysing cells washed with phosphate buffered saline (PBS) with a lysis buffer [10 mM Tris-HCl (pH 7.1), 100 mM NaCl, 1 mM EDTA, 10% glycerol, 0.5% Triton X-100, 0.5% Nonidet P-40, 1 mM dithiothreitol and 0.5 mM phenylmethylsulfonyl fluoride (PMSF)] at 4° C. for 30 minutes, and centrifuging the resulting solution at 14,000×g for 15 minutes to obtain a supernatant. To obtain the nuclear fraction, a low-osmotic pressure buffer containing 10 mM HEPES (pH 7.9), 10 mM KCl, 0.1 mM EDTA, 1 mM DTT and 0.5 mM PMSF was added and reacted at 4° C. for 10 minutes. Following addition of 10% Nonidet P-40 and vortexing for 10 seconds, the supernatant obtained by centrifugation at 13,000 rpm for 3 minutes was removed, and the remaining precipitate was washed three times with a low-osmotic pressure buffer. The precipitate was mixed with a high-osmotic pressure buffer [20 mM HEPES (pH 7.9), 400 mM NaCl, 1 mM EDTA, 1 mM DTT and 1 mM PMSF] and vortexed again at 4° C. for 10 minutes to induce a reaction for 20 minutes. Following centrifugation at 13,000 rpm for 10 minutes, a supernatant was obtained to be used as a nuclear fraction. A protein concentration was quantified using a protein quantify kit of PRO-MEASURE™ protein measurement solution (iNtRON Biotechnology, South Korea) according to the Bradford assay.
Sodium dodecylsulfate-polyacrylamide gel electrophoresis (SDS-PAGE) was performed using a gel electrophoresis device (Mighty Small SE 250, Hoefer Scientific Instruments, San Francisco) according to the method established by the inventors. […]

[4] = test system: C57BL/6 mice with liver fibrosis induced by carbon tetrachloride; test: carbon tetrachloride (CCl4)-induced liver fibrosis animal model; format: in vivo, mouse; details: 40 mg/kg oral once a day 5 days a week, 3 weeks, FIG. 3a
Procedure: 6-week-old male C57BL/6J mice (Joongang laboratory animal, Seoul) were acclimated in a laboratory environment for 1 week with solid feed, and randomly arranged in control groups and experimental groups according to randomized block design. Then, carbon tetrachloride (1 ml/kg) was administered to 6-week-old male C57BL/6 mice (Joongang laboratory animal, Seoul) twice a week for three weeks to induce liver fibrosis, and a GPR119 ligand (10 mg/kg) suspended in 40% PEG400 was orally administered thereto once a day for five days per week. For liver fibrosis models induced by dimethylnitrosamine (DMN), DMN (10 mg/kg) was administered to mice three times a week to induce liver fibrosis. As the control group, a vehicle-treated group was used. After termination of the experiment, the laboratory animals were fasted for 12 hours or more, and anesthetized with Zoletil to obtain blood and the liver, and the liver was washed with 0.1 M phosphate buffered saline (PBS; pH 7.4) and weighed. The blood obtained from the abdominal aorta was centrifuged in an SST tube at 3000×RPM for 20 minutes to isolate the serum.
For the above-mentioned laboratory animals, serum alanine transaminase (ALT), aspartate transaminase (AST), total bilirubin (T-BIL) and direct bilirubin (D-BIL) were analyzed using an automated hematology analyzer, Spectrum [(Abbott Laboratories, Abbott Park, Ill.)].
The liver samples obtained as described above were prepared into sections, and the tissue section was fixed with 10% buffered neutral formalin and embedded in paraffin. Afterward, the resulting section was sliced to a 4-μm thickness, and put on a slide to fix a specimen, stained with sirius red, and observed using an optical microscope.
A predetermined amount of liver tissue was homogenized in a mortar with liquid nitrogen and a lysis buffer, and the resulting tissue solution was transferred into a new tube and then vortexed. The tissue solution was centrifuged at 14,000 rpm and 4° C. for 20 minutes, and the intermediate layer was extracted to quantify a protein by a Bradford method. 30 μg of proteins were analyzed by electrophoresis using an SDS polyacrylamide gel, and the change of protein expression was analyzed by western blot.
To examine improvement of liver fibrosis by the GPR119 ligand, in an animal model having liver fibrosis induced by carbon tetrachloride (CCl4), an effect of the GPR119 ligand on inhibiting liver fibrosis was observed.
First, 1 ml/kg of carbon tetrachloride was intraperitoneally administered twice a week, and also orally administered with the GPR119 ligand (MBX-2982) at doses of 20 and 40 mg/kg, respectively, once a day for 5 days a week. Three weeks later, liver tissue was extracted, subjected to sirius red staining for confirming collagen production and immunohistochemical staining for confirming expression of a HSC activation marker, that is, α-SMA, and then compared with a control group and a carbon tetrachloride only-treated group.

[5] = LX-2 treated with ligand alone, FIG. 4h
[6] = LX-2 treated with TGFβ1, FIGS. 2c, 2d

In the case of `CCc1cnc(N2CCC(c3nc(COc4ccc(-n5cnnn5)cc4)cs3)CC2)nc1` [MBX-2982, 4-((4-(1H-tetrazol-1-yl)phenoxy)methyl)-2-(1-(5-ethylpyrimidin-2-yl)piperidin-4-yl)thiazole], the “mRNA expression of collagen col1A1” value (mouse HSCs) is reported as “considerably inhibited”, the “collagen I expression” value [1] is reported as “inhibited” and the α-SMA expression [1] is reported as “inhibited”. The Pin1 expression [2] was “time-dependently reduced”, the “expression of the p300 protein” value (p300; [5]) was “reduced depending on the concentration” and the “mRNA expression of p300” value (p300; [5]) was “no influence”. For the same molecule, the “expression of the p300 protein decreased by ligand, with proteasome inhibitor MG132” value (p300; with MG132 treatment, FIG. 4i) was “recovered”, the “HSC proliferation induced by PDGF” value (HSC line LX-2) was “inhibited” and the “AMPK activation (AMPK and ACC phosphorylation)” value [3] was “highly activated”. The “expression of TGFβ1-inducible liver fibrosis inducing factors (collagen I, TGFβ) with compound C / DN-AMPK” value (human HSC line LX-2; AMPK inhibitor compound C treated, DN-AMPK transduced, FIG. 4c) was “inhibitory effect”, the “inhibitory effect on collagen I and TGFβ expression under overexpression of Pin1” value (human HSC line LX-2; LX-2 transduced with Pin1 adenovirus, TGFβ1, FIG. 5c) was “reversed” and the “expression of TGFβ1-inducible TGFβ” value (human HSC line LX-2; [6]) was “inhibited”. The “expression of TGFβ1-inducible collagen I” value (human HSC line LX-2; [6]) was “inhibited”, the “nuclear translocation of Smad2/Smad3 elevated by TGFβ1” value (Smad2/Smad3; LX-2, FIG. 2e) was “inhibited” and the “phosphorylation of Smad2/Smad3 elevated by TGFβ1” value (Smad2/Smad3; LX-2, FIG. 2e) was “inhibited”. The “inhibitory action on phosphorylation of Smad3 activated by TGFβ1, under AMPK inhibition” value (Smad2/Smad3; compound C / DN-AMPK, FIG. 4d) was “partially recovered by AMPK inhibition, but not completely offset” and the “collagen production (sirius red staining) in liver tissue” value [4] was “significantly reduced”.
